Measurements from patent publication US4570006A, “Amidine compound, process for producing same and anti-complement agent comprising same” (Torii & Co. Ltd., priority 1981, dated 1986).
Like-named read-outs stand apart in the source and are kept apart here.

Legend:
Thrombin = Thrombin (Homo sapiens, UniProt P00734); test: biochemical; settings: read-out: ID50, thrombin
Trypsin = target: T1, Trypsin (Bos taurus, UniProt P00760); test: Anti-trypsin activity (inhibition of TAME hydrolysis); format: biochemical; settings: read-out: ID50, trypsin
T1 sequence (P00760 24-246): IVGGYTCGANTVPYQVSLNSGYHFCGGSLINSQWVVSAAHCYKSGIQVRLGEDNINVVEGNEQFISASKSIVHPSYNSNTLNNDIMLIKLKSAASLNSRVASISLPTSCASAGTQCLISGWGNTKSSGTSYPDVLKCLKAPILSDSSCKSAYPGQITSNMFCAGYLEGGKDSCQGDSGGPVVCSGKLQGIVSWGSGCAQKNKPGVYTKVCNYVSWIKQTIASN
Method: (§1) The anti-trypsin, anti-plasmin, anti-kallikrein and anti-thrombin activities were determined according to the method of Muramatsu et al. [M. Muramatsu, T. Onishi, S. Makino, Y. Hayashi and S. Fujii, J. of Biochem., 58, 214 (1965)]. The data summarized in Table 1 are expressed in terms of molar concentration (ID50) of the test compound which inhibits 50% of the activity of each enzyme to hydrolyze TAME (tosylarginine methyl ester). The compound No. corresponds to the compound number shown in Examples.

Cls = target: T2, Cls (Homo sapiens, UniProt P09871); test: Anti-Cl esterase activity, Cls (ATEE hydrolysis); format: biochemical; settings: hydrolysis of ATEE; read-out: Anti-Cl activity, Cls (50% inhibition)
T2 sequence (P09871 438-688 limits assumed): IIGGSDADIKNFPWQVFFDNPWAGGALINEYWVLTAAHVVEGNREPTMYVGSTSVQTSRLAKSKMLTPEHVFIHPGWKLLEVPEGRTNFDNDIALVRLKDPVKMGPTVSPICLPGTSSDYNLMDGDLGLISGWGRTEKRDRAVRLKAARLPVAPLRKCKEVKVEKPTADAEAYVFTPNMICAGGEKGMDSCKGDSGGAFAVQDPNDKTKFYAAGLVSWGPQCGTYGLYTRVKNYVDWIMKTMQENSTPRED
T2 sequence (P09871 16-437 limits assumed): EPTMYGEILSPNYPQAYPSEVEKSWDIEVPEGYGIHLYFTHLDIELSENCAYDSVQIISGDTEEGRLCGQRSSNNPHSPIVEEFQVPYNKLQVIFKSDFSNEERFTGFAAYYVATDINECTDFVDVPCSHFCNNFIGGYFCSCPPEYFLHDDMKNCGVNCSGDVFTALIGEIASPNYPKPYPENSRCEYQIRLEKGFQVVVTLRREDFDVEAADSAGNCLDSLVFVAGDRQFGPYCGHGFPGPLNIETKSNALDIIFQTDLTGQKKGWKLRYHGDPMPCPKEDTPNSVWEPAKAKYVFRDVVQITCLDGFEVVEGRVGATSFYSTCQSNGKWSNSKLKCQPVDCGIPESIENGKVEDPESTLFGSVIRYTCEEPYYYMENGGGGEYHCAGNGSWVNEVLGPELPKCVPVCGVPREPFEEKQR
Method: The anti-Cl esterase (Clr, Cls) activity was determined according to the method of Okamura et al. [K. Okamura, M. Muramatsu and B. Fujii, Biochem. Biophys. […] The figures in Table 2 have the following meanings:
Cls: Molar concentration of the test compound which inhibits 50% of the ability of Cls to hydrolyse ATEE (acetyltyrosin ethyl ester).

Kallikrein = test: Anti-kallikrein activity (inhibition of TAME hydrolysis); format: biochemical; settings: read-out: ID50, kallikrein
Method: as §1

complement = test: Inhibition of complement mediated hemolysis; format: cell-based
Clr = target: T3, Clr (Homo sapiens, UniProt P00736); test: Anti-Cl esterase activity, Clr (AAME hydrolysis); format: biochemical; settings: hydrolysis of AAME; read-out: Anti-Cl activity, Clr (ID50)
T3 sequence (P00736 464-705 limits assumed): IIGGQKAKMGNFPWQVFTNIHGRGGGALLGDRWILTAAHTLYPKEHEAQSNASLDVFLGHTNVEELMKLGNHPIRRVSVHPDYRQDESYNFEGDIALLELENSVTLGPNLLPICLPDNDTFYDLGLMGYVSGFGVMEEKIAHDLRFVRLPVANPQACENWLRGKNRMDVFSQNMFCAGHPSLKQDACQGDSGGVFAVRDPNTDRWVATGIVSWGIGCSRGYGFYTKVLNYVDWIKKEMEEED
T3 sequence (P00736 18-463 limits assumed): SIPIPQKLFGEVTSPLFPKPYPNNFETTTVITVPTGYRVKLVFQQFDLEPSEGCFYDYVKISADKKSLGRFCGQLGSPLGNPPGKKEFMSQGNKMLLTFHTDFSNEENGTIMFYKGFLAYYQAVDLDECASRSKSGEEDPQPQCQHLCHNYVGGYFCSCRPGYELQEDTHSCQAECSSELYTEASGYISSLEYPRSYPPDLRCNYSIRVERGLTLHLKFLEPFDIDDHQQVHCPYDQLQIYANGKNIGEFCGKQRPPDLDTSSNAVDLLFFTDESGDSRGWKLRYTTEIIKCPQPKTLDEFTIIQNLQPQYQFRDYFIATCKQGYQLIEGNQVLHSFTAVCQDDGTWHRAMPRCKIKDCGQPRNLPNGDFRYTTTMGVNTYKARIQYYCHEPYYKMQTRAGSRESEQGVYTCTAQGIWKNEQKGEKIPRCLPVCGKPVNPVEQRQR
Method: The anti-Cl esterase ([…]) activity was determined according to the method of Okamura et al. [K. Okamura, M. Muramatsu and B. Fujii, Biochem. Biophys.

Plasmin = Plasmin (Homo sapiens, UniProt P00747); test: Anti-plasmin activity (inhibition of TAME hydrolysis); format: biochemical; settings: read-out: ID50, plasmin
Sequence of Plasmin (P00747 581-810 limits assumed, species assumed): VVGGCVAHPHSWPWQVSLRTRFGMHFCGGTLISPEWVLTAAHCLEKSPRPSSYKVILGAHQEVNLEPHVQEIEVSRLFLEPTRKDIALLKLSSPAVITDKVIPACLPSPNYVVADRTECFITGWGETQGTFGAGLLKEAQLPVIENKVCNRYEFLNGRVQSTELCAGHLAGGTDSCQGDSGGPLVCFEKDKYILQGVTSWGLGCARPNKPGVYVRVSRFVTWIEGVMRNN
Sequence of Plasmin (P00747 97-580 limits assumed, species assumed): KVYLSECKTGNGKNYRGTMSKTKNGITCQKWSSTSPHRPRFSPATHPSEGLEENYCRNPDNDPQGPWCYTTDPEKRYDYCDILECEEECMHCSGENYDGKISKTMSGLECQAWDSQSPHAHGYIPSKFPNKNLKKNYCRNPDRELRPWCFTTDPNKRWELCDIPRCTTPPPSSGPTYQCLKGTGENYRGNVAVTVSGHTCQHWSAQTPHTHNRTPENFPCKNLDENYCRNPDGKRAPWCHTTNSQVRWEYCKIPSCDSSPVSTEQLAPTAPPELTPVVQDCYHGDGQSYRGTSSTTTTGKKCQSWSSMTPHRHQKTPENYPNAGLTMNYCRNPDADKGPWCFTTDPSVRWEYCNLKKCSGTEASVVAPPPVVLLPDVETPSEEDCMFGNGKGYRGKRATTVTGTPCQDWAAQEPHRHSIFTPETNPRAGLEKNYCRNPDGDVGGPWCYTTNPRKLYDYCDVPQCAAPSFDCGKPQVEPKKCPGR
Method: as §1

Compound	IC50 (Thrombin; TAME hydrolysis)	IC50 (Trypsin)	IC50 (Cls)	IC50 (Kallikrein)	IC50 (Clr)	IC50 (Plasmin)	IC50 (Thrombin)	Inhibition of complement mediated hemolysis (%) (complement; compound at 1 × 10^-4)	Inhibition of complement mediated hemolysis (%) (complement; compound at 1 × 10^-5)	Inhibition of complement mediated hemolysis (%) (complement; compound at 1 × 10^-6)	Inhibition of complement mediated hemolysis (%) (complement; compound at 1 × 10^-7)
Cc1cc(OC(=O)c2ccccc2)ccc1C(=N)N [Compound 22, 4-amidino-3-methylphenyl benzoate]	2000 nM	> 10000 nM	> 10000 nM	> 10000 nM	6000 nM	> 10000 nM	–	22.8%	0%	0%	0%
N=C(N)c1ccc(OC(=O)c2ccccc2)c(C(=O)O)c1 [Compound 24, 4-amidino-2-carboxyphenyl benzoate]	4000 nM	3000 nM	2000 nM	> 10000 nM	> 10000 nM	> 10000 nM	–	88.2%	29.1%	11.0%	16.7%
N=C(N)c1ccc(OC(=O)c2ccccc2)c(S(=O)(=O)O)c1 [Compound 28, 5-amidino-2-benzoyloxybenzenesulfonic acid]	3000 nM	10000 nM	3000 nM	> 10000 nM	> 10000 nM	7000 nM	–	79.1%	25.0%	22.8%	23.8%
N=C(N)c1ccc(OC(=O)c2ccccc2)c(NC(=O)c2ccccc2)c1 [Compound 30, 4-amidino-2-benzoylaminophenyl benzoate]	30 nM	300 nM	300 nM	200 nM	900 nM	400 nM	–	100%	100%	99.0%	45.3%
N=C(N)c1ccc(OC(=O)CCCc2ccccc2)c(C(=O)c2ccccc2)c1 [Compound 33]	> 10000 nM	> 10000 nM	> 10000 nM	> 10000 nM	> 10000 nM	> 10000 nM	–	94.1%	20.4%	0%	0%
COc1cc(C(=N)N)ccc1OC(=O)c1ccc(C)cc1 [Compound 35]	3000 nM	1000 nM	300 nM	> 10000 nM	400 nM	5000 nM	–	88.8%	43.9%	29.9%	11.8%
Cc1ccc(C(=O)Oc2ccc(C(=N)N)cc2[N+](=O)[O-])cc1 [Compound 37]	300 nM	50 nM	60 nM	700 nM	40 nM	400 nM	–	95.9%	37.3%	16.0%	0%
CC(C)(C)c1ccc(C(=O)Oc2ccc(C(=N)N)cc2[N+](=O)[O-])cc1 [Compound 38]	200 nM	20 nM	300 nM	1000 nM	300 nM	400 nM	–	98.6%	100%	96.1%	37.2%

Further lines, with some results ahead:

IC50 (Thrombin; TAME hydrolysis)	IC50 (Trypsin)	IC50 (Cls)	IC50 (Kallikrein)	IC50 (Clr)	IC50 (Plasmin)	IC50 (Thrombin)	Compound	Inhibition of complement mediated hemolysis (%) (complement; compound at 1 × 10^-4)	Inhibition of complement mediated hemolysis (%) (complement; compound at 1 × 10^-5)	Inhibition of complement mediated hemolysis (%) (complement; compound at 1 × 10^-6)	Inhibition of complement mediated hemolysis (%) (complement; compound at 1 × 10^-7)
> 10000 nM	> 10000 nM	4000 nM	> 10000 nM	> 10000 nM	> 10000 nM	–	N=C(N)c1ccc(OC(=O)[C@H]2CC[C@H](CN)CC2)c(C(=O)c2ccccc2)c1 [Compound 21]	99.3%	99.9%	60.2%	10.9%
60 nM	400 nM	300 nM	2000 nM	200 nM	400 nM	–	N=C(N)c1ccc(OC(=O)c2ccccc2)c(Cl)c1 [Compound 26, 4-amidino-2-chlorophenyl benzoate]	100.0%	99.4%	61.6%	16.7%
100 nM	300 nM	200 nM	4000 nM	500 nM	400 nM	–	N=C(N)c1ccc(OC(=O)c2ccccc2)c([N+](=O)[O-])c1 [Compound 27, 4-amidino-2-nitrophenyl benzoate]	100%	100%	95.5%	26.2%
30 nM	800 nM	300 nM	1000 nM	3000 nM	400 nM	–	N=C(N)c1ccc(OC(=O)c2ccccc2)c(C(=O)c2ccccc2)c1 [Compound 29, 4-amidino-2-benzoylphenyl benzoate]	98.4%	97.9%	67.8%	8.0%
20000 nM	8000 nM	3000 nM	40000 nM	2000 nM	3000 nM	–	COc1cc(C(=N)N)ccc1OC(=O)/C=C/c1ccccc1 [Compound 31, 4-amidino-2-methoxyphenyl cinnamate]	97.2%	80.5%	15.8%	1.8%
–	4000 nM	3000 nM	> 10000 nM	3000 nM	4000 nM	3000 nM	N=C(N)c1ccc(OC(=O)C=Cc2ccccc2)c([N+](=O)[O-])c1 [Compound 34]	99.6%	96.7%	53.7%	12.4%
